Marks after values point to notes of the source that are not given here.
How the values were obtained:
[1] = tested on: Influenza A/Vietnam/1203/2004 (H5N1) virus; set-up: species or system BALB/c mice; details: mouse, in vivo
[2] = tested on: influenza H1N1 and Streptococcus pneumoniae; set-up: species or system mice; details: mouse, in vivo

Structure (SMILES): CCOC(=O)C1=C[C@@H](OC(CC)CC)[C@H](NC(C)=O)[C@@H](N)C1 [Oseltamivir, oseltamivir]
- Hazard Ratio (95% CI) [1]: 4.8 (1.6-14.3)
- Live/Total [1]: 4/7*
- Mean Day of Death ± SD [1]: 11.3 ± 0.6
- Median Survival [1]: Undefined
- survival, H5N1 [1]: 60%

Structure (SMILES): NC(=O)c1ncn([C@@H]2O[C@H](CO)[C@@H](O)[C@H]2O)n1 [Ribavirin, ribavirin]
- rescue from death [2]: failed to rescue animals from death
